{"source": "ChEMBL document CHEMBL1145819", "about": "(J Med Chem, 2003)", "key": {"[1]": {"molecular_target": "T1, 5-hydroxytryptamine receptor 5A (Mus musculus, UniProt P30966)", "T1 sequence (P30966 whole entry)": "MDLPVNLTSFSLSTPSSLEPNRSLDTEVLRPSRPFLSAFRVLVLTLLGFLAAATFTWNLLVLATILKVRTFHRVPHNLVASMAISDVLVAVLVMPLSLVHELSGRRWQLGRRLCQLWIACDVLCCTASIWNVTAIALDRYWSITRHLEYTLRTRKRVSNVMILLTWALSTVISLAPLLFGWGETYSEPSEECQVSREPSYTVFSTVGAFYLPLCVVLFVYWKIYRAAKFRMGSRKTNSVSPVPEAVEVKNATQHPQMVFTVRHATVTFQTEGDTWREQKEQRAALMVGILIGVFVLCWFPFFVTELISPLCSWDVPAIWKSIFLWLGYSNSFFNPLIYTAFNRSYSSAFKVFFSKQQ", "assay": "Binding affinity towards mouse 5-hydroxytryptamine 5A receptor was evaluated using [3H]LSD as radioligand"}, "[2]": {"molecular_target": "T2, 5-hydroxytryptamine receptor 6 (Homo sapiens, UniProt P50406)", "T2 sequence (P50406 whole entry)": "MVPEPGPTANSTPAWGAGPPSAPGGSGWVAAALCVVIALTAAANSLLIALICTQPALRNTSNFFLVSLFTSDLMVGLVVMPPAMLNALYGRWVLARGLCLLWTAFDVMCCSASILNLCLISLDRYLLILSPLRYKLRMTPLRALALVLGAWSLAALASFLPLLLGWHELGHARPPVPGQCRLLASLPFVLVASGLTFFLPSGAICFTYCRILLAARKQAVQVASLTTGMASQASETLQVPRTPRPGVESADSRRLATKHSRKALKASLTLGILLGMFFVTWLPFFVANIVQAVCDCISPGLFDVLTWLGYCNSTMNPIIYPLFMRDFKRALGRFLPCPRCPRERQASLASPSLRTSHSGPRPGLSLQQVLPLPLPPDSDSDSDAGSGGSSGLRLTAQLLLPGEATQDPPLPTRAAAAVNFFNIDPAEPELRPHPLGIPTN", "assay": "Binding affinity towards human 5-hydroxytryptamine 6 receptor was evaluated using [125I]-2-iodo LSD as radioligand"}, "[3]": {"molecular_target": "T3, 5-hydroxytryptamine receptor 5A (Homo sapiens, UniProt P47898)", "T3 sequence (P47898 whole entry)": "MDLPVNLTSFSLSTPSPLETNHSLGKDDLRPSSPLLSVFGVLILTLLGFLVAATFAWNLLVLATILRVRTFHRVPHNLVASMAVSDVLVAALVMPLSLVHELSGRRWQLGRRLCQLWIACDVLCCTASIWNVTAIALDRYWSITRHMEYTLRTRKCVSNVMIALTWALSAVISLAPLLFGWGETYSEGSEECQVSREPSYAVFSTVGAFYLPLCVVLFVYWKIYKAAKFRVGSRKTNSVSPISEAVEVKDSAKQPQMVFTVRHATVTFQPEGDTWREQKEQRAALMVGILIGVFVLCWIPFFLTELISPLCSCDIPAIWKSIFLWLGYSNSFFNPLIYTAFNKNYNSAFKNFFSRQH", "assay": "Binding affinity towards human 5-hydroxytryptamine 5A receptor"}, "[4]": {"molecular_target": "T2, 5-hydroxytryptamine receptor 6"}, "[5]": {"molecular_target": "T1, 5-hydroxytryptamine receptor 5A", "assay": "Binding affinity towards murine 5-hydroxytryptamine 5A receptor"}, "[6]": {"molecular_target": "T4, 5-hydroxytryptamine receptor 7 (Homo sapiens, UniProt P34969)", "T4 sequence (P34969 whole entry)": "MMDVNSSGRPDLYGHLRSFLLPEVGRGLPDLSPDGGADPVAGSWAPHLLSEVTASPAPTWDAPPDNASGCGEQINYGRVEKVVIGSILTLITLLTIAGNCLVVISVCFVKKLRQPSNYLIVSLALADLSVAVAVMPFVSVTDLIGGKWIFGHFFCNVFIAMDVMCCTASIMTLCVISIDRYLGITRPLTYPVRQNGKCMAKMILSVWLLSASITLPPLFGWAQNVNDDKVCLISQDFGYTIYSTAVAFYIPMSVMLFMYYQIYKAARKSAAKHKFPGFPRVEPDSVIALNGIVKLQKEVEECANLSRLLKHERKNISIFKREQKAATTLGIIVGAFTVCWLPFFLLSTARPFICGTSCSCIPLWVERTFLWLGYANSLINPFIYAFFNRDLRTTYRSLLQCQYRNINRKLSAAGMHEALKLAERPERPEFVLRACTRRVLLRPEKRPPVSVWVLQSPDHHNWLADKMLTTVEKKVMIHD", "assay": "Binding affinity towards human 5-hydroxytryptamine 7 receptor"}, "[7]": {"molecular_target": "T2, 5-hydroxytryptamine receptor 6", "assay": "Antagonistic activity towards 5-hydroxytryptamine 6 receptor was evaluated in cAMP assay", "assay_type": "functional"}, "[8]": {"assay": "Antagonistic activity of compound in 5-HT induced cAMP accumulation", "assay_type": "functional"}, "[9]": {"assay": "Antagonistic activity of compound in cAMP accumulation was evaluated", "assay_type": "functional"}, "[10]": {"molecular_target": "5-hydroxytryptamine receptor 7 (Rattus norvegicus, UniProt P32305)", "sequence (P32305 whole entry)": "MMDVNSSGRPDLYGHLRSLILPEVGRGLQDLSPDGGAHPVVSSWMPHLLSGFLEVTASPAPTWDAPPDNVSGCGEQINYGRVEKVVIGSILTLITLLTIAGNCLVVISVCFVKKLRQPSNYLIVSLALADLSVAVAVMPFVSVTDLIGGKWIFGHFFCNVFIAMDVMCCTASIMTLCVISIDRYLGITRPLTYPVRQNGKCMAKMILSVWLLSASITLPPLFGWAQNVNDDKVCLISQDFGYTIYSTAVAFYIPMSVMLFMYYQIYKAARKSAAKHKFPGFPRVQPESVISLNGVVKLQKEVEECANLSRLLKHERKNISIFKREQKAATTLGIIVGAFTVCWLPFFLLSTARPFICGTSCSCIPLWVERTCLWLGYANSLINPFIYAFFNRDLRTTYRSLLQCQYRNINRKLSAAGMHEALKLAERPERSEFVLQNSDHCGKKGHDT", "assay": "Binding affinity towards rat 5-hydroxytryptamine 7 receptor", "settings": "read-out: Ki"}, "[11]": {"molecular_target": "5-hydroxytryptamine receptor 2A (Homo sapiens, UniProt P28223)", "sequence (P28223 whole entry)": "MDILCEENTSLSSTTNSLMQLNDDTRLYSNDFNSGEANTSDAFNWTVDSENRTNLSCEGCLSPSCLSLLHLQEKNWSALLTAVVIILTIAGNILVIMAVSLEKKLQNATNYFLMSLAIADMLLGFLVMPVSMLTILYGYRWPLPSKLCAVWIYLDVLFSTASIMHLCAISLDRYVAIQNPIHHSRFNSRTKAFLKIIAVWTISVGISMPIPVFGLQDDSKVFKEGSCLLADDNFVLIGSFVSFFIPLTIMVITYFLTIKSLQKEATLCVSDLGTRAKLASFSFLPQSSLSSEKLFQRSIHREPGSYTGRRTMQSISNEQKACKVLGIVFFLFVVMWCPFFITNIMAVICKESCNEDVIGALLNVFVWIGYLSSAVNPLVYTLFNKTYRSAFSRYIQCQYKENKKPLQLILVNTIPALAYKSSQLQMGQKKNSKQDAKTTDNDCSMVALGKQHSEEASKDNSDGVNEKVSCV", "assay": "Binding affinity towards 5-hydroxytryptamine 2A receptor"}, "[12]": {"molecular_target": "T5, Alpha-2A adrenergic receptor (Homo sapiens, UniProt P08913)", "T5 sequence (P08913 whole entry)": "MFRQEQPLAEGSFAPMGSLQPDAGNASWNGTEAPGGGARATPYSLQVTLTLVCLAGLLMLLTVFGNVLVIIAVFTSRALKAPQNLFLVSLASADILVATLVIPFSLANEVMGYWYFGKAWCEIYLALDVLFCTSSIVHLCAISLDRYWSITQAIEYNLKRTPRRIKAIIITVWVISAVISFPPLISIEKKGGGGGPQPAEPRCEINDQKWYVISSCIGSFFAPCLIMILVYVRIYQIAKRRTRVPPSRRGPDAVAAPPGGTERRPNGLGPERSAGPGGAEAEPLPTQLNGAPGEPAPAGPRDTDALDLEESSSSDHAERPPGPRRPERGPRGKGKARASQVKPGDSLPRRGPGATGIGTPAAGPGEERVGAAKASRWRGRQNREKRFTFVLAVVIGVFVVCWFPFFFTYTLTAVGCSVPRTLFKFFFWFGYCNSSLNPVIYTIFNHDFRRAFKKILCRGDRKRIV", "assay": "Binding affinity towards Alpha-2 adrenergic receptor"}, "[13]": {"molecular_target": "T6, Alpha-1A adrenergic receptor (Homo sapiens, UniProt P35348)", "T6 sequence (P35348 whole entry)": "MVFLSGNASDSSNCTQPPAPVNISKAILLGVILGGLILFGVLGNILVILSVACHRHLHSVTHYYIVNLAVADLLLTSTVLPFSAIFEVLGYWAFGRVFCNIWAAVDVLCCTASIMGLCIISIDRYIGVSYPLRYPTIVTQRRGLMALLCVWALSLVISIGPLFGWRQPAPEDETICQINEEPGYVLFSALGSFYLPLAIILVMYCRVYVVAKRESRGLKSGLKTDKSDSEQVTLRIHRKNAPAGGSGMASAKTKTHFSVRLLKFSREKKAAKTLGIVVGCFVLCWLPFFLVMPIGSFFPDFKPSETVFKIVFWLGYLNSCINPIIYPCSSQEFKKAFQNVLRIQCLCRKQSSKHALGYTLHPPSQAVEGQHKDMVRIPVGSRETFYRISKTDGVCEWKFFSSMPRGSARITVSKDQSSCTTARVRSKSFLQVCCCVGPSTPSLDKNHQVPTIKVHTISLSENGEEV", "assay": "Binding affinity towards alpha-1-adrenergic receptor"}, "[14]": {"molecular_target": "T2, 5-hydroxytryptamine receptor 6", "assay": "Binding affinity towards human 5-hydroxytryptamine 6 receptor was evaluated using [3H]-LSD as radioligand"}, "[15]": {"molecular_target": "T4, 5-hydroxytryptamine receptor 7"}, "[16]": {"molecular_target": "T3, 5-hydroxytryptamine receptor 5A", "assay": "Binding affinity towards human 5-hydroxytryptamine 5A receptor was evaluated using [3H]-5-CT as radioligand"}, "[17]": {"molecular_target": "T1, 5-hydroxytryptamine receptor 5A", "assay": "Binding affinity towards mouse 5-hydroxytryptamine 5A receptor was evaluated using [3H]- LSD as radioligand"}}, "note": "“And” between values parts separate entries of the source, which are not always exact repeats. Equal entries are not always repeated."}
{"smiles": "Cc1[nH]c2ccc(O)cc2c1CCN", "values": [{"measurement": "Ki", "setting": "[1]", "value": "> 10000", "unit": "nM"}, {"measurement": "Ki", "setting": "[2]", "value": 400, "unit": "nM"}, {"measurement": "Ki", "setting": "[3]", "value": "> 10000", "unit": "nM"}]}
{"smiles": "C[N+](C)(C)CCc1c[nH]c2ccc(O)cc12", "values": [{"measurement": "Ki", "setting": "[3]", "value": "> 10000", "unit": "nM"}]}
{"smiles": "COc1ccc2c(CCN(C)C)c[nH]c2c1", "values": [{"measurement": "Ki", "setting": "[4]", "value": 8000, "unit": "nM"}]}
{"smiles": "Cn1c2c(c3ccccc31)CNCC2", "values": [{"measurement": "Ki", "setting": "[5]", "value": 5300, "unit": "nM"}]}
{"smiles": "CO[C@]1(C)c2cccc3c2-c2c1ccc1c2[C@@H](C3)N(C)CC1", "values": [{"measurement": "Ki", "setting": "[6]", "value": 1.1, "unit": "nM"}]}
{"smiles": "Cc1cn(S(=O)(=O)c2ccc(N)cc2)c2ccccc12", "values": [{"measurement": "IC50", "setting": "[7]", "value": 300, "unit": "nM"}, {"measurement": "Kb", "setting": "[7]; read-out: pA2 (converted)", "value": 100, "unit": "nM"}, {"measurement": "Ki", "setting": "[4]", "value": 12, "unit": "nM"}]}
{"smiles": "COc1cccc2c(CCN(C)C)c[nH]c12", "values": [{"measurement": "Ki", "setting": "[4]", "value": 19600, "unit": "nM"}]}
{"smiles": "CN(C)CCc1cn(S(=O)(=O)c2ccc(N)cc2)c2ccccc12", "values": [{"measurement": "Ki", "setting": "[4]", "value": 0.8, "unit": "nM"}]}
{"smiles": "Cc1cccc(S(=O)(=O)N2CCC[C@@H]2CCN2CCC(C)CC2)c1", "note": "[SB-258741]", "values": [{"measurement": "Ki", "setting": "[6]", "value": 3, "unit": "nM"}]}
{"smiles": "Clc1cccc(N2CCNCC2)c1", "note": "[CHLOROPHENYLPIPERAZINE]", "values": [{"measurement": "Ki", "setting": "[1]", "value": 8700, "unit": "nM"}, {"measurement": "Ki", "setting": "[5]", "value": 8700, "unit": "nM"}, {"measurement": "Ki", "setting": "[2]", "value": 2300, "unit": "nM"}]}
{"smiles": "C1CCN2CCNCC2C1", "note": "(stereo not drawn)", "values": [{"measurement": "Ki", "setting": "[4]", "value": 5, "unit": "nM"}]}
{"smiles": "CC1CCCN(CCC(C)N(C)S(=O)(=O)c2cccc3ccccc23)C1", "note": "(stereo not drawn)", "values": [{"measurement": "Ki", "setting": "[6]", "value": "32 nM and 125 nM and 65 nM"}]}
{"smiles": "CN(C)Cc1cn(S(=O)(=O)c2ccccc2)c2ccccc12", "values": [{"measurement": "IC50", "setting": "[7]", "value": 800, "unit": "nM"}, {"measurement": "Ki", "setting": "[4]", "value": 3.1, "unit": "nM"}]}
{"smiles": "CO[C@@]1(C)c2cccc3c2-c2c1ccc1c2[C@@H](C3)N(C)CC1", "values": [{"measurement": "Ki", "setting": "[6]", "value": 1.1, "unit": "nM"}]}
{"smiles": "COc1cccc2[nH]cc(CCN(C)C)c12", "values": [{"measurement": "Ki", "setting": "[4]", "value": 154, "unit": "nM"}]}
{"smiles": "CNc1cc(NS(=O)(=O)c2ccc(N)cc2)nc(NC)n1", "values": [{"measurement": "pA2", "setting": "[8]", "value": 6.75}]}
{"smiles": "COc1ccc(NS(=O)(=O)c2ccc(Br)cc2)cc1N1CCN(C)CC1", "values": [{"measurement": "pKb", "setting": "[9]", "value": 7.8}]}
{"smiles": "O=S(=O)(c1cccc2ccccc12)n1ccc2ccc(N3CCN4CCCC4C3)cc21", "note": "(stereo not drawn)", "values": [{"measurement": "Ki", "setting": "[4]", "value": 0.7, "unit": "nM"}]}
{"smiles": "O=c1[nH]c2ccccc2n1C1CCN(CCCC(c2ccc(F)cc2)c2ccc(F)cc2)CC1", "note": "[PIMOZIDE]", "values": [{"measurement": "Ki", "setting": "[4]", "value": 71, "unit": "nM"}]}
{"smiles": "CN1C[C@@H](NS(=O)(=O)N(C)C)C[C@@H]2c3cccc4[nH]cc(c34)C[C@H]21", "note": "[DISULERGINE]", "values": [{"measurement": "Ki", "setting": "[6]", "value": 18, "unit": "nM"}, {"measurement": "Ki", "setting": "[10]", "value": 21, "unit": "nM"}]}
{"smiles": "CN1CCN(C2=Nc3ccccc3Nc3sccc32)CC1", "values": [{"measurement": "Ki", "setting": "[10]", "value": 104, "unit": "nM"}]}
{"smiles": "CN(C)Cc1cn(S(=O)(=O)c2ccc(N)cc2)c2ccccc12", "values": [{"measurement": "Ki", "setting": "[4]", "value": 6.9, "unit": "nM"}]}
{"smiles": "COc1ccc2c(c1)c1c(n2S(=O)(=O)c2ccccc2)CCCC1CN(C)C", "note": "(stereo not drawn)", "values": [{"measurement": "Ki", "setting": "[4]", "value": 1.5, "unit": "nM"}]}
{"smiles": "CN1CCc2ccc3c4c2[C@H]1Cc1cccc(c1-4)[C@@H]3N", "values": [{"measurement": "Ki", "setting": "[11]", "value": 469, "unit": "nM"}, {"measurement": "Ki", "setting": "[6]", "value": 18, "unit": "nM"}, {"measurement": "Ki", "setting": "[12]", "value": 92.8, "unit": "nM"}, {"measurement": "Ki", "setting": "[13]", "value": 373, "unit": "nM"}]}
{"smiles": "COc1cc(CC(C)N)c(OC)cc1I", "note": "(stereo not drawn)", "values": [{"measurement": "Ki", "setting": "[3]", "value": "> 1000", "unit": "nM"}]}
{"smiles": "COc1ccc2c(c1)c(CCN(C)C)cn2S(=O)(=O)c1ccc(N)cc1", "values": [{"measurement": "Ki", "setting": "[4]", "value": 2, "unit": "nM"}]}
{"smiles": "CN(C)CC/C=C1/c2ccccc2Sc2ccc(Cl)cc21", "note": "[CHLORPROTHIXENE]", "values": [{"measurement": "Ki", "setting": "[10]", "value": 5.6, "unit": "nM"}, {"measurement": "Ki", "setting": "[4]", "value": 3, "unit": "nM"}]}
{"smiles": "CNS(=O)(=O)c1ccc2[nH]cc(CCN(C)C)c2c1", "values": [{"measurement": "Ki", "setting": "[14]", "value": 2600, "unit": "nM"}, {"measurement": "Ki", "setting": "[15]", "value": 950, "unit": "nM"}, {"measurement": "Ki", "setting": "[3]", "value": 5000, "unit": "nM"}, {"measurement": "Ki", "setting": "[16]", "value": 5000, "unit": "nM"}]}
{"smiles": "CN1CCN(C2=Nc3ccccc3Oc3ccc(Cl)cc32)CC1", "note": "[LOXAPINE]", "values": [{"measurement": "Ki", "setting": "[4]", "value": 15, "unit": "nM"}]}
{"smiles": "c1ccc2c(N3CCNCC3)cccc2c1", "values": [{"measurement": "Ki", "setting": "[17]", "value": 40, "unit": "nM"}]}
{"smiles": "CO[C@H]1c2cccc3c2c(cn3S(=O)(=O)c2ccc(C)cc2)C[C@@H]1N", "values": [{"measurement": "Ki", "setting": "[4]", "value": 130, "unit": "nM"}]}
{"smiles": "CNc1cc(NC)cc(NS(=O)(=O)c2ccc(N)cc2)c1", "values": [{"measurement": "Ki", "setting": "[4]", "value": 200, "unit": "nM"}]}
{"smiles": "OCCN1CCN(CCCN2c3ccccc3Sc3ccc(Cl)cc32)CC1", "note": "[PERPHENAZINE]", "values": [{"measurement": "Ki", "setting": "[6]", "value": 23, "unit": "nM"}]}
